The values that follow come from US5066658A, “Substituted hydroxyureas” (Ortho Pharmaceutical Corporation, priority 1990, dated 1991).

Assay [1] deals with Arachidonate-Induced Bronchospasm (cyclooxygenase). The assay can be described thus: Pulmonary Mechanics Assay: arachidonate-induced bronchospasm without indomethacin (indicative of cyclooxygenase inhibition). To be noted: Cavia porcellus, guinea pig; for inhibition in vivo at 15 mg/kg: IV dosing, read-out: Inhibition of Arachidonate-Induced Bronchospasm (IV Dosing), % Inh. without Indomethacin. The format is in vivo, male Hartley guinea pigs. Put shortly: (§1)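 Urethane-anaesthetised (2 g/kg i.p.), succinylcholine-paralysed, ventilated male Hartley guinea pigs; compound given by various routes between i.v. arachidonic acid challenges (0.5-1.0 mg/kg; then 5-10 mg/kg after indomethacin 10 mg/kg i.v.). Cdyn and RL changes expressed as percent inhibition of control.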

A further assay addresses T1, 5-lipoxygenase (Rattus norvegicus, UniProt P12527).
T1 construct: The cell-free homogenate was prepared by sonication of the cells followed by centrifugation at 40,000 xg; endogenous in cells; host or cells: RBL-1 (rat basophilic leukemia) cells, 40,000 xg supernatant of the sonicate
T1 sequence (P12527 1-673): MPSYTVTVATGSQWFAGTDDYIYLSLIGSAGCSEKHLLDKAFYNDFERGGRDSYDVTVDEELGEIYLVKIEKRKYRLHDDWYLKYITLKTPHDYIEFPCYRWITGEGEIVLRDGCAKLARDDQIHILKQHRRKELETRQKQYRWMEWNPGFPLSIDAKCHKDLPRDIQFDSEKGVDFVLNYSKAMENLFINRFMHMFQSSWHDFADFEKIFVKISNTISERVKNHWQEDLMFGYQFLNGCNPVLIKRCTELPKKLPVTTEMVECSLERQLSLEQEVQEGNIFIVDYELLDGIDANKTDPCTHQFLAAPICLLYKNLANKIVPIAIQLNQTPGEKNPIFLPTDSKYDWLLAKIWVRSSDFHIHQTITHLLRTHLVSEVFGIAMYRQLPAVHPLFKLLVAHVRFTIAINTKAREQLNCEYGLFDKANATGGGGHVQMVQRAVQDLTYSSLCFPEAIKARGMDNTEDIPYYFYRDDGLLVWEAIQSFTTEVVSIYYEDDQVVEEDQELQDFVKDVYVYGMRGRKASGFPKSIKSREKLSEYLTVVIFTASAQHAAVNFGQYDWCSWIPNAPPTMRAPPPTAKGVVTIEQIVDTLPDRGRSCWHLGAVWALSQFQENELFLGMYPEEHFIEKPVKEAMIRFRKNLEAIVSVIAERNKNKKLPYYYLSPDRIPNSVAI
Nature of the assay: Inhibition of 5-lipoxygenase in cell-free homogenate of rat basophilic leukemia (RBL-1) cells. In kind it is biochemical. To be noted: RBL-1 cell-free homogenate; for inhibition at 3 µM: read-out: Inhibition of 5-Lipoxygenase, % Inh. @ 3 μM. In short, it runs like this: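 40,000 xg supernatant of sonicated RBL-1 cell homogenate incubated with ^14C-arachidonic acid and CaCl2, with drug or vehicle. Products extracted after acidification, separated by TLC and quantified by scintillation counting; IC50 or percent inhibition at 3 μM reported.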

Assay [2] concerns Arachidonate-Induced Bronchospasm (lipoxygenase). The assay can be described thus: Pulmonary Mechanics Assay: arachidonate-induced bronchospasm with indomethacin (SRS-A response, indicative of lipoxygenase inhibition). In kind it is in vivo, male Hartley guinea pigs. As to conditions: Cavia porcellus, guinea pig; for inhibition in vivo at 15 mg/kg: IV dosing, read-out: Inhibition of Arachidonate-Induced Bronchospasm (IV Dosing), % Inh. with Indomethacin. Put shortly: as §1

The test system of assay [3] is Arachidonate-Induced Ear Edema. Nature of the assay: Arachidonic Acid-Induced Ear Edema Assay. In kind it is in vivo. As to conditions: topical, mouse ear; for inhibition in vivo at 0.2 mg: 200 μg topically; for inhibition in vivo at 0.4 mg: 400 μg topically. On the procedure: The topical anti-inflammatory activity of a compound was determined by its ability to inhibit an experimentally-induced inflammation in the mouse ear. Basically, four milligrams of arachidonic acid in acetone were applied to the dorsal surface of one ear with a microliter pipette. The mice were sacrificed at various times after application of arachidonic acid (one-half to six hours). A section of each ear was removed with a 7 mm round punch and weighed on an electronic or analytical balance. The difference in weight between treated and untreated ears was determined. Compounds to be evaluated for anti-inflammatory activity can be incorporated directly into the irritant mixture or at various times prior to or after application of arachidonic acid.
The degree of anti-inflammatory activity is shown in Table I, and is expressed in terms of the percent inhibition of ear weight increase.

[4] abbreviates: read-out: Inhibition of Arachidonate-Induced Ear Edema, % Inh. (μg topically).
[5] abbreviates: ID dosing, read-out: Inhibition of Arachidonate-Induced Bronchospasm (ID Dosing), % Inh. without Indomethacin.
[6] abbreviates: ID dosing, read-out: Inhibition of Arachidonate-Induced Bronchospasm (ID Dosing), % Inh. with Indomethacin.

Each structure is given as a SMILES string. Where only a bound is given, the exact number is not on record here.

Usually inhibition stands for the relative decrease from the control value, in per cent. Turning to `CCCCCCCCCCCCN(O)C(=O)N(C)C` [Example 13, N,N-Dimethyl-N.-dodecyl-N'-hydroxyurea], the results for the inhibition in vivo at 15 mg/kg in assay [1] and in assay [2] were 57% and 66%, respectively. On 5-lipoxygenase, the inhibition at 3 µM is 95%. Further, in assay [3] (setting [4]), the inhibition in vivo at 0.2 mg was found to be 90%.
As a reminder, the IC50 is the point on the concentration scale where inhibition reaches its midpoint. Lower therefore signals higher potency. Take `CCCCCCCCCCNC(=O)N(C)O` [Example 16, N-Decyl-N'-methyl-N'-hydroxyurea]: the inhibition in vivo at 100 mg/kg in assay [1] (ID dosing, 100 mg/kg, read-out: Inhibition of Arachidonate-Induced Bronchospasm (ID Dosing), % Inh. without Indomethacin) was < 20%; in assay [2] (ID dosing, 100 mg/kg, read-out: Inhibition of Arachidonate-Induced Bronchospasm (ID Dosing), % Inh. with Indomethacin), 35%. The inhibition in vivo at 15 mg/kg came out at 55% in assay [1] and 58% in assay [2]. Moreover, it took 0.21 µM to reach half-maximal inhibition at 5-lipoxygenase (IC50). In assay [3], the “Inhibition of Arachidonate-Induced Ear Edema, ED50” value (from here on “Inhibition … ED50”) stood at 28 µg. Also, the inhibition in vivo at 0.4 mg in assay [3] (setting [4]) is 73%.
Regarding `CCCCCCCCCCN(C)C(=O)N(C)O` [Example 17, N-Decyl-N,N'-dimethyl-N'-hydroxyurea], the inhibition in vivo at 15 mg/kg in assay [1] is 41%; in assay [2], 79%. At 5-lipoxygenase, this molecule yielded an IC50 of 0.16 µM. For the same molecule, the “Inhibition … ED50” value in assay [3] came to 24 µg. For the same molecule, the inhibition in vivo at 0.4 mg in assay [3] (setting [4]) amounted to 88%.
Consider `CCCCCCCCCCN(O)C(=O)N(CC)CC` [Example 1, N,N-Diethyl-N'-decyl-hydroxyurea], for which the inhibition in vivo at 15 mg/kg in assay [1] was determined as 54%; in assay [2], 38%. At 5-lipoxygenase, the inhibition at 3 µM was 100%. In assay [3] (setting [4]), the inhibition in vivo at 0.4 mg came to 52%.
As to `COc1cc2c(cc1OC)CN(C(=O)N(C)O)CC2` [Example 51, 6,7-Dimethoxy-N-hydroxy-N-methyl-1,2,3,4-tetrahydroisoquinoline-2-carboxamide], the inhibition in vivo at 15 mg/kg in assay [1] is < 20%; in assay [2] it was 60%. Moreover, the inhibition at 3 µM on 5-lipoxygenase came out at 24%. Also, the inhibition in vivo at 0.1 mg in assay [3] (100 μg topically, read-out: Inhibition of Arachidonate-Induced Ear Edema, % Inh. (μg topically)) is 28%.
With `CCCCCCCCCCN(O)C(=O)NCCCCCCC(=O)OC` [Example 6, N-[6-(Methoxycarbonyl)hexyl]-N'-decyl-N'-hydroxyurea], the results for the inhibition in vivo at 15 mg/kg in assay [1] and in assay [2] were -45% and < 20%, respectively. Further, the inhibition at 3 µM on 5-lipoxygenase is 100%. Moreover, the inhibition in vivo at 0.4 mg in assay [3] (setting [4]) worked out at 30%.
For `CCCCCCCCCCN(O)C(=O)NCCC(=O)OC` [Example 4, N-[2-(Methoxycarbonyl)ethyl]-N'-decyl-N'-hydroxyurea] the same measures were -39%, < 20%, 100% and 65%.
With `CCCCCCCCCCCN(O)C(=O)N(C)C` [Example 12, N,N-Dimethyl-N'-undecyl-N'-hydroxyurea], the inhibition in vivo at 50 mg/kg in assay [1] (setting [5]) is -9%; in assay [2] (setting [6]), 40%. Further, at 5-lipoxygenase, the inhibition at 3 µM was found to be 100%. In assay [3], the “Inhibition … ED50” value stood at 65 µg. In assay [3] (setting [4]), the inhibition in vivo at 0.2 mg came out at 94%.
As to `COc1ccc(CCNC(=O)N(C)O)cc1OC` [Example 40, N-[2-(3,4-Dimethoxyphenyl)ethyl]N'-hydroxy-N'-methylurea], the inhibition in vivo at 25 mg/kg turned out to be 69% in assay [1] (ID dosing, 25 mg/kg, read-out: Inhibition of Arachidonate-Induced Bronchospasm (ID Dosing), % Inh. without Indomethacin) and 89% in assay [2] (ID dosing, 25 mg/kg, read-out: Inhibition of Arachidonate-Induced Bronchospasm (ID Dosing), % Inh. with Indomethacin). Also, the values for the inhibition in vivo at 15 mg/kg in assay [1] and in assay [2] were 86% and 89%, respectively. The IC50 against 5-lipoxygenase worked out at 4.3 µM. Further, the inhibition in vivo at 0.4 mg in assay [3] (setting [4]) is 66%.
Take `CCCCCCCCCCN(O)C(=O)NCCCC(=O)OC` [Example 5, N-[3-(Methoxycarbonyl)propyl]-N'-decyl-N'-hydroxyurea]: the inhibition in vivo at 15 mg/kg in assay [1] is < 20%; in assay [2], 37%. Further, the inhibition at 3 µM on 5-lipoxygenase was determined as 100%. Further, in assay [3] (setting [4]), the inhibition in vivo at 0.4 mg came out at 49%.
Turning to `CCCCCCCCCCCCCN(O)C(=O)N(C)C` [Example 14, N,N-Dimethyl-N'-tridecyl-N'-hydroxyurea], the values for the inhibition in vivo at 50 mg/kg in assay [1] (setting [5]) and in assay [2] (setting [6]) were -128% and 49%, respectively. In addition, the inhibition at 3 µM on 5-lipoxygenase came to 95%. Moreover, the “Inhibition … ED50” value in assay [3] was found to be 156 µg. Besides, the inhibition in vivo at 0.2 mg in assay [3] (setting [4]) worked out at 95%.
In the case of `CCCCCN1CCN(O)C1=O` [Example 23, 1-pentyl-3-hydroxyimidazolidin-2-one], the inhibition in vivo at 15 mg/kg in assay [1] is 97%; in assay [2] it was 52%. Further, on 5-lipoxygenase, the half-maximal inhibitory concentration (IC50) is > 10 µM. For the same molecule, the inhibition in vivo at 0.2 mg in assay [3] (setting [4]) amounted to 29%.
